From patent US20260294849A1, “METHODS FOR TREATING CORNEAL INJURIES” (National Taiwan University, priority 2023, published 2026)
“Also recorded” adds a separate entry of the source. Where a name gives a salt, the structure may show the parent alone.

Legend:
Format in all cases: in vivo, mice (nT/nG transgenic)
laser-injured cornea = test: Corneal observation (opacity, edema, ulcer formation, ocular surface) via gross images after laser ablation and intracameral injection; conditions: for Ocular surface of the eye: Day 2 after laser ablation and intracameral injection, BSS group: mild inflammation and irritation; for Edema / Opacity / Ulcer formation: laser-injured cornea after treatment, single intracameral injection 0.5 μl, Day 2; for Edema: BSS group: mild edema; for Opacity: BSS group: slight opacity; for Ulcer formation: BSS group: slight ulcer formation
Text: (§1) nT/nG transgenic mice (Jax #023035; the Jackson Laboratory), having a Cre-reporter allele comprising a cell nuclear-targeted tandem dimerTomato (tdTomato; an orange fluorescent protein) and an enhanced green fluorescent protein (EGFP) (Prigge, Wiley et al., 2013; “Nuclear double-fluorescent reporter for in vivo and ex vivo analyses of biological transitions in mouse nuclei.”), were used in the present study for investigating the cell density and the healing process in corneal endothelium. The mice were characterized in that, prior to Cre recombination, widespread fluorescence expression of tdTomato (localized to the cell nucleus) was observed; whereas following Cre recombination, nuclear-localized green fluorescence was detected. All procedures on mice were approved by and performed in accordance with the Institutional Animal Care and Use Committees of National Taiwan University.
(§2) To eliminate the corneal endothelial cells, the multiphoton femtosecond laser was employed to induce cell ablation due to its ability to precisely control cell ablation in time and space with minimal injury made to adjacent tissues (Rompolas, Deschene et al., 2012; “Live imaging of stem cell and progeny behaviour in physiological hair-follicle regeneration.”). Once the corneal endothelial cells needed to be removed were identified, laser ablation was performed on the selected area (50 μm×50 μm) with a 880 nm laser wavelength and a 500 mW laser power in a single scan, with repeatedly adjusting the laser along the z-axis to achieve optimal results.
(§3) Following laser ablation, the aforementioned drugs were intracamerally injected to the cornea of the mice immediately using a customized needle attached to a 5 μl syringe (Hamilton). To avoid the motion, a cotton swab was used to prop the eyeball during the intracameral injection above on the peripheral region of the cornea. Each eye was slowly applied with a single dose of 0.5 μl different drugs.
The test compound(s) was/were intracamerally administered to the mice following laser ablation of the cornea, and then the corneal opacity was initially evaluated via gross images of the cornea.

[1] = test system: corneal endothelial cells; test: Corneal wound healing by multiphoton microscopy (intravital imaging) after laser ablation; conditions: intracameral injection; for Corneal wound healing, Day 2: Day 2 after laser ablation, BSS group: compromised integrity until Day 2; for Corneal wound healing, Day 1: Day 1 after laser ablation, BSS group could not seal the wound defects
Text: as §1
For live image acquisition, mice were anesthetized by intramuscular injection of 50-80 mg/kg Zoletil (Virbac). The corneal surface was anesthetized with 0.4% oxybuprocaine hydrochloride (Sigma) in saline. An eye holder was used to minimize artifacts during intravital imaging, as previously described (Wu, Wang et al., 2019; “Intravital multiphoton microscopic imaging platform for ocular surface imaging.”). Intravital imaging was performed using a laser wavelength of 880 nm for tdTomato excitation and a laser power of approximately 35 mW at the sample plane to optimize the image quality without photobleaching. A water-immersion 20×/NA1.0 objective lens (Olympus) was used to focus the laser light onto the eyes, after the laser light was reflected by the main dichroic mirror (Semrock). The tdTomato signals were spectrally separated using a bandpass filter of 585/40 nm (Semrock). To prevent dryness of the ocular surface during imaging, an eye gel (Vidisic Gel, Dr. Gerhard Mann Chem-Pharm) with a refractive index of 1.338 was used as an immersion medium on the cornea. Image stacks along the z-axis with a step size of 1 μm were acquired, and the dimensions of the images acquired in this study were 512×512 pixels.
as §2, §3
The efficacy of the tested drugs in promoting the corneal wound healing was investigated by a multiphoton microscopy analysis, in which changes in the wound site following drug injection was tracked.

[2] = test system: corneal endothelial cells; test: Corneal endothelial cell density after laser ablation (confocal cell counting); conditions: for Corneal endothelial cell density: day 2 after laser ablation, intracameral injection, means±SEM, Control 728.5 ± 55.01, BSS 633 ± 33.7; for Protection of the corneal endothelial cells against injuries: order: Formoterol Sulfate>Formoterol PG>Formoterol BG>Formoterol>THBP>Permethrin>Fenbutrazate>Levonordefrin>Encainide>Bhilawanol A
Text: as §1, §2, §3
The mice were anesthesia and sacrificed on day 2 after laser ablation with the indicated treatments administered (as shown in FIGS. 1-3), and their eyes were enucleated and fixed in 4% paraformaldehyde (PFA) at 4° C. overnight. After dissecting the cornea from the eyeball, the cornea was cut into a four-petal shape, placed on glass slides, mounted with a mounting medium (Vector), and immobilized by using a coverslip. All the fluorescent images were acquired by a SP8 confocal microscope (Leica), with steps set at 1 μm per z-section for a 20× objective. The cell nuclear ware manually segmented by using spot plugin in Imaris (Oxford instruments). For each sample, a circle area with a diameter of 300 μm was selected to count the cell numbers, so as to quantify the cell density in different drug treatments.
All the experimental data were performed by Prism and represented as means±SEM. The statistical significance of difference between the experimental groups was evaluated by Student's t test. P values<0.05 were considered statistically significant.
The protective effect of the present compound(s) on the corneal endothelial cells against injuries was evaluated by counting the cell number and/or the density of the corneal endothelial cells, instead of the keratocytes in corneal stroma or the other cell populations in trabecular meshwork.

Compound	Ocular surface of the eye (laser-injured cornea)	Edema (laser-injured cornea)	Opacity (laser-injured cornea)	Ulcer formation (laser-injured cornea)	Corneal wound healing, Day 2 ([1]; 6 μM)	Corneal endothelial cell density [2]	Protection of the corneal endothelial cells against injuries [2]	Corneal wound healing, Day 1 ([1]; 6 μM)	Corneal wound healing, Day 2 ([1]; 30 μM (238.875 ng/kg))
COc1ccc(C(=O)Nc2ccccc2CCC2CCCCN2C)cc1 (stereo not drawn) [Encainide, reference compound]	maintained the ocular surface of the eye moist and transparent	No	No	No	promoted wound healing on Day 2	690 ± 8.8 cell number/the area of a circ	protected the corneal endothelial cells	–	–
CCC(C(=O)OCCN1CCOC(c2ccccc2)C1C)c1ccccc1 (stereo not drawn) [Fenbutrazate, reference compound]	maintained the ocular surface of the eye moist and transparent	No	slightly hazy spot formation; also recorded: Slight hazy	No	promoted wound healing on Day 2	720.8 ± 14.9 cell number/the area of a circ	protected the corneal endothelial cells	–	–
2,2,4,4-Tetrahydroxybenzophenone [THBP]	maintained the ocular surface of the eye moist and transparent	No	No	No	–	724 ± 12.8 cell number/the area of a circ	protected the corneal endothelial cells	accelerated wound healing and sealed the defects on Day 1	–
COc1ccc(C[C@@H](C)NC[C@H](O)c2ccc(OS(=O)(=O)O)c(NC=O)c2)cc1 [Formoterol Sulfate]	maintained the ocular surface of the eye moist and transparent	No	No	No	promoted wound healing on Day 2	805.25 ± 22.3 cell number/the area of a circ	protected the corneal endothelial cells	–	–
COc1ccc(C[C@@H](C)NC[C@H](O)c2ccc(O[C@@H]3O[C@H](C(=O)O)[C@@H](O)[C@H](O)[C@H]3O)c(NC=O)c2)cc1 [Formoterol PG, Formoterol Phenolic Glucuronide]	maintained the ocular surface of the eye moist and transparent	No	No	No	promoted wound healing on Day 2	799.5 ± 23.56 cell number/the area of a circ	protected the corneal endothelial cells	–	–
CCCCCC/C=C\CCCCCCCc1cccc(O)c1O [Bhilawanol A]	maintained the ocular surface of the eye moist and transparent	No	No	No	–	674.3 ± 8 cell number/the area of a circ	protected the corneal endothelial cells	–	promoted wound healing on Day 2
COc1ccc(CC(C)NCC(OC2O[C@H](C(=O)O)[C@@H](O)[C@H](O)[C@H]2O)c2ccc(O)c(NC=O)c2)cc1 (stereo partly drawn) [Formoterol BG, Formoterol Benzyl Glucuronide]	maintained the ocular surface of the eye moist and transparent	No	No	No	promoted wound healing on Day 2	796 ± 24.9 cell number/the area of a circ	protected the corneal endothelial cells	–	–
C[C@H](N)[C@H](O)c1ccc(O)c(O)c1 [Levonordefrin, reference compound]	maintained the ocular surface of the eye moist and transparent	No	No	No	–	710.5 ± 41.7 cell number/the area of a circ	protected the corneal endothelial cells	accelerated wound healing and sealed the defects on Day 1	–
CC1(C)C(C=C(Cl)Cl)C1C(=O)OCc1cccc(Oc2ccccc2)c1 (stereo not drawn) [Permethrin, reference compound]	maintained the ocular surface of the eye moist and transparent	No	No	No	promoted wound healing on Day 2	721.8 ± 12.9 cell number/the area of a circ	protected the corneal endothelial cells	–	–
